Results on 22 molecules are retold here after patent US20260224758A1, “ALPHA-SYNUCLEIN BINDERS AND METHODS OF USE” (Merck Sharp & Dohme LLC, priority 2023, published 2026).

By Ki is commonly meant the equilibrium dissociation constant of an inhibitor or competing ligand from its target.

SMILES strings stand for the structures. Like-named read-outs stand apart in the source and are kept apart here.

In assay [1] the target is T1, triton-extracted alpha-synuclein from PD Tissue (Homo sapiens, UniProt P37840).
T1 construct: tissue Analytic Biological Services Inc; host or cells: human PD temporal cortex grey matter, Triton X-100 insoluble pellet
Description: Alpha-synuclein tissue homogenate binding assay (Assay 1), displacement of [^3H]-1000. To be noted: for Selectivity ratio (Assay 2/Assay 1): Aβ Tissue Ki / α-synuclein Tissue Ki; for Ki: read-out: α-synuclein Tissue Ki (Assay 1).

For assay [2], the target named is aggregated beta amyloid in AD tissue (Homo sapiens, UniProt P05067). Description: Competitive radioligand binding to pathological aggregated beta amyloid in AD tissue (Assay 2), displacement of [^3H]-105. Particulars: Aβ-rich AD frontal cortex homogenate, [^3H]-105, Kd 11.0 nM.
Description: Frozen human brain samples of Alzheimer's disease (AD) were purchased from Analytic Biological Services Inc. The samples were post-mortem tissue from donors with clinical diagnosis of AD and much of the white matter was dissected out of the frontal cortex in order to enrich the tissue preparations for gray matter. Brain homogenates of gray matter enriched frontal cortex were prepared by homogenizing the tissue in ice cold Phosphate Buffered Saline (PBS), pH 7.4 at 80 mg wet weight tissue per 1 ml for 45 seconds at 4° C., on setting 16 of Polytron. The homogenate was further diluted with ice cold PBS to 30 mg wet weight tissue per 1 ml and homogenized for an additional minute as described above. Homogenates were aliquoted in 5 ml/tube and stored at −70° C. until use.
Radioligand [^3H]-105, prepared as described in ACS Med. Chem. Lett., Vol. 2, pages 498-502, was used in this assay.
For Assay 2 unlabeled test compounds were dissolved in DMSO at 10 mM. Dilutions of tests compounds to various concentrations were made in 100% DMSO at 1000× final assay concentration and 0.225 μl aliquots were dispensed into assay plates. Brain homogenates were diluted to 0.5 mg/ml from original 30 mg/ml volume in Assay Buffer, and 200 μl were added to the assay plate for a final concentration of 100 ug wet weight/assay well. [^3H]-105 was prepared at 10× final concentration in Assay Buffer plus 20% DMSO and 25 μl was added to the assay plate for final assay concentration of 3.0 nM. The plates were incubated at 37° C. for 90 minutes. Unbound and bound ligand were separated by filtration of bound onto GF/B filter plates (pre-treated for 30 min with 0.1% PEI) using a Packard Filtermate and washing away unbound with 2.5 mil ice cold 5 mM Tris at pH 7.4. Filter plates were dried for 1 hr at 57° C. and 50 μl Microscint was added to each well of the plate. The plates were counted for ^3H cpm for 1 min per well using PerkinElmer TopCount.
The mark [3] stands for this setting: insoluble fraction of PD brain homogenate, [^3H]-1000 3.0 nM, Kd 0.90 nM.

aggregated beta amyloid in AD tissue, sequence (P05067 672-711 limits assumed): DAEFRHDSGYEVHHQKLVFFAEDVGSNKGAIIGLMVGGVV

In the case of `COC[C@H]1CN(c2ncc(C#Cc3ccc(-c4cnco4)nc3)cn2)CCN1c1ncc(OCCF)cn1` [Example 66, (R)-5-(5-((2-(4-(5-(2-fluoroethoxy)pyrimidin-2-yl)-3-(methoxymethyl)piperazin-1-yl)pyrimidin-5-yl)ethynyl)pyridin-2-yl)oxazole], the “Selectivity ratio (Assay 2/Assay 1)” value in assay [1] was determined as 706. Besides, the inhibitory constant (Ki) in assay [1] (setting [3]) is 1.7 nM; in assay [2], not below 1200 nM.
Take `COCc1cnc(N2CCN(c3ncc(/C=C/c4ccc(-n5ccnc5)nc4)cn3)[C@@H](COC)C2)nc1` [Example 9, (R,E)-5-(2-(6-(1H-imidazol-1-yl)pyridin-3-yl)vinyl)-2-(2-(methoxymethyl)-4-(5-(methoxymethyl)pyrimidin-2-yl)piperazin-1-yl)pyrimidine]: in assay [1], the “Selectivity ratio (Assay 2/Assay 1)” value is reported as 15000. The results for the inhibition constant Ki in assay [1] (setting [3]) and in assay [2] were 0.8 nM and not below 12000 nM, respectively.
As for `Cn1cc(-c2ncc(C#Cc3cnc(N4CCN(c5ncccn5)[C@@H](COCCOCCF)C4)nc3)cn2)cn1` [Example 52, (R)-2-(3-((2-(2-fluoroethoxy)ethoxy)methyl)-4-(pyrimidin-2-yl)piperazin-1-yl)-5-((2-(1-methyl-1H-pyrazol-4-yl)pyrimidin-5-yl)ethynyl)pyrimidine], in assay [1], the “Selectivity ratio (Assay 2/Assay 1)” value came to 857 and the Ki came to 1.4 nM. For the same molecule, in assay [2], the Ki was not below 1200 nM.
In the case of `FCCOC[C@H]1CN(c2ncc(/C=C/c3ccc(-c4cnco4)nc3)cn2)CCN1c1ncncn1` [Example 41, (R,E)-5-(5-(2-(2-(3-((2-fluoroethoxy)methyl)-4-(1,3,5-triazin-2-yl)piperazin-1-yl)pyrimidin-5-yl)vinyl)pyridin-2-yl)oxazole], the “Selectivity ratio (Assay 2/Assay 1)” value in assay [1] turned out to be 1500. The results for the Ki in assay [1] (setting [3]) and in assay [2] were 0.8 nM and not below 1200 nM, respectively.
In the same order, the values of `COC[C@H]1CN(c2ncc(/C=C/c3ccc(-n4ccnc4)nc3)cn2)CCN1c1ncc(CF)cn1` [Example 8, (R,E)-5-(2-(6-(1H-imidazol-1-yl)pyridin-3-yl)vinyl)-2-(4-(5-(fluoromethyl)pyrimidin-2-yl)-3-(methoxymethyl)piperazin-1-yl)pyrimidine] are 10909, 1.1 nM and not below 12000 nM.
On to `Cc1cn(-c2ccc(/C=C/c3cnc(N4CCN(c5ncccn5)[C@@H](COCCF)C4)nc3)cn2)cn1` [Example 40, (R,E)-2-(3-((2-fluoroethoxy)methyl)-4-(pyrimidin-2-yl)piperazin-1-yl)-5-(2-(6-(4-methyl-1H-imidazol-1-yl)pyridin-3-yl)vinyl)pyrimidine], for which, in assay [1], the “Selectivity ratio (Assay 2/Assay 1)” value is 2857 and the inhibition constant Ki stood at 0.42 nM. Besides, the inhibition constant (Ki) in assay [2] was not below 1200 nM.
Consider `COC[C@H]1CN(c2ccccn2)CCN1c1ncc(/C=C/c2ccc(-c3cnco3)nc2)cn1` [Example 26, (R,E)-5-(5-(2-(2-(2-(methoxymethyl)-4-(pyridin-2-yl)piperazin-1-yl)pyrimidin-5-yl)vinyl)pyridin-2-yl)oxazole], for which the “Selectivity ratio (Assay 2/Assay 1)” value in assay [1] turned out to be 3871. Also, the figures for the Ki in assay [1] (setting [3]) and in assay [2] were 3.1 nM and not below 12000 nM, respectively.
In the same order, the values of `FCCOC[C@H]1CN(c2ncc(C#Cc3ccc(N4CCn5cnnc5C4)nc3)cn2)CCN1c1ncncn1` [Example 75, (R)-7-(5-((2-(3-((2-fluoroethoxy)methyl)-4-(1,3,5-triazin-2-yl)piperazin-1-yl)pyrimidin-5-yl)ethynyl)pyridin-2-yl)-5,6,7,8-tetrahydro-[1,2,4]triazolo[4,3-a]pyrazine] are 1312, 0.915 nM and not below 1200 nM.
For the molecule `COCCOC[C@H]1CN(c2ncc(C#Cc3ccc(-n4ccnc4)nc3)c(F)n2)CCN1c1ncncn1` [Example 80, (R)-2-(4-(5-((6-(1H-imidazol-1-yl)pyridin-3-yl)ethynyl)-4-fluoropyrimidin-2-yl)-2-((2-methoxyethoxy)methyl)piperazin-1-yl)-1,3,5-triazine], the “Selectivity ratio (Assay 2/Assay 1)” value in assay [1] was 794. Besides, the Ki in assay [1] (setting [3]) was 1.51 nM; in assay [2] it was not below 1200 nM.
In the same order, the values of `Cn1cc(-c2ccc(C#Cc3cnc(N4CCN(c5ncncn5)[C@@H](COCCF)C4)nc3)cn2)cn1` [Example 50, (R)-2-(2-((2-fluoroethoxy)methyl)-4-(5-((6-(1-methyl-1H-pyrazol-4-yl)pyridin-3-yl)ethynyl)pyrimidin-2-yl)piperazin-1-yl)-1,3,5-triazine] are 2673, 0.449 nM and not below 1200 nM.
In the same order, the values of `COC[C@H]1CN(c2ncc(C#Cc3ccc(-c4cnco4)nc3)cn2)CCN1c1ccnc(F)c1` [Example 64, (R)-5-(5-((2-(4-(2-fluoropyridin-4-yl)-3-(methoxymethyl)piperazin-1-yl)pyrimidin-5-yl)ethynyl)pyridin-2-yl)oxazole] are 442, 2.71 nM and not below 1200 nM.
`COC[C@H]1CN(c2cc3cnccn3c2)CCN1c1ncc(/C=C/c2ccc(-n3cccn3)nc2)cn1` [Example 21, (R,E)-7-(4-(5-(2-(6-(1H-pyrazol-1-yl)pyridin-3-yl)vinyl)pyrimidin-2-yl)-3-(methoxymethyl)piperazin-1-yl)pyrrolo[1,2-a]pyrazine]: in assay [1], the “Selectivity ratio (Assay 2/Assay 1)” value was 10000 and the inhibitory constant (Ki) was found to be 1.3 nM. In assay [2], this molecule gave a Ki of 13000 nM.
The matching figures for `COC[C@H]1CN(c2ncc(/C=C/c3ccc(-n4ccnc4)nc3)cn2)CCN1c1ncc(CO)cn1` [Example 7, (R,E)-(2-(4-(5-(2-(6-(1H-imidazol-1-yl)pyridin-3-yl)vinyl)pyrimidin-2-yl)-2-(methoxymethyl)piperazin-1-yl)pyrimidin-5-yl)methanol]: 436, 1.1 nM and 480 nM.
`COC[C@H]1CN(c2cc(F)ncn2)CCN1c1ncc(/C=C/c2ccc(-n3ccnc3)nc2)cn1` [Example 13, (R,E)-5-(2-(6-(1H-imidazol-1-yl)pyridin-3-yl)vinyl)-2-(4-(6-fluoropyrimidin-4-yl)-2-(methoxymethyl)piperazin-1-yl)pyrimidine]: the “Selectivity ratio (Assay 2/Assay 1)” value in assay [1] is reported as 12000. In addition, the Ki in assay [1] (setting [3]) is 1 nM; in assay [2] it was not below 12000 nM.
The matching figures for `FCCOC[C@H]1CN(c2ncc(/C=C/c3ccc(-c4cnco4)nc3)cn2)CCN1c1ncccn1` [Example 36, (R,E)-5-(5-(2-(2-(3-((2-fluoroethoxy)methyl)-4-(pyrimidin-2-yl)piperazin-1-yl)pyrimidin-5-yl)vinyl)pyridin-2-yl)oxazole]: 12000, 0.94 nM and not below 12000 nM.
In the same order, the values of `COC[C@H]1CN(c2ncc(C#Cc3ccc(-c4cnn(CCOCCF)c4)nc3)cn2)CCN1c1ncncn1` [Example 77, (R)-2-(4-(5-((6-(1-(2-(2-fluoroethoxy)ethyl)-1H-pyrazol-4-yl)pyridin-3-yl)ethynyl)pyrimidin-2-yl)-2-(methoxymethyl)piperazin-1-yl)-1,3,5-triazine] are 705, 1.7 nM and not below 1200 nM.
In the same order, the values of `COC[C@H]1CN(c2ncc(C#Cc3ccc(-n4ccnc4)nc3)cn2)CCN1c1ccnc(F)n1` [Example 61, (R)-4-(4-(5-((6-(1H-imidazol-1-yl)pyridin-3-yl)ethynyl)pyrimidin-2-yl)-2-(methoxymethyl)piperazin-1-yl)-2-fluoropyrimidine] are 805, 1.49 nM and not below 1200 nM.
As to `COC[C@H]1CN(c2ncc(C)cn2)CCN1c1ncc(/C=C/c2ccc(-n3ccnc3)nc2)cn1` [Example 25, (R,E)-5-(2-(6-(1H-imidazol-1-yl)pyridin-3-yl)vinyl)-2-(2-(methoxymethyl)-4-(5-methylpyrimidin-2-yl)piperazin-1-yl)pyrimidine], the “Selectivity ratio (Assay 2/Assay 1)” value in assay [1] is reported as 400. Besides, the Ki worked out at 0.9 nM in assay [1] (setting [3]) and 360 nM in assay [2].
The matching figures for `FCCCOC[C@H]1CN(c2ncc(C#Cc3ccc(-c4cnco4)nc3)cn2)CCN1c1ncncn1` [Example 74, (R)-5-(5-((2-(3-((3-fluoropropoxy)methyl)-4-(1,3,5-triazin-2-yl)piperazin-1-yl)pyrimidin-5-yl)ethynyl)pyridin-2-yl)oxazole]: 618, 1.94 nM and not below 1200 nM.
In the case of `FCCOC[C@H]1CN(c2ncc(C#Cc3ccc(-n4cnnc4)nc3)cn2)CCN1c1ncncn1` [Example 70, (R)-2-(4-(5-((6-(4H-1,2,4-triazol-4-yl)pyridin-3-yl)ethynyl)pyrimidin-2-yl)-2-((2-fluoroethoxy)methyl)piperazin-1-yl)-1,3,5-triazine], the “Selectivity ratio (Assay 2/Assay 1)” value in assay [1] is 472. Also, the inhibition constant (Ki) in assay [1] (setting [3]) is 2.54 nM; in assay [2] it was not below 1200 nM.
Take `COC[C@H]1CN(c2cc(F)ccn2)CCN1c1ncc(/C=C/c2ccc(N3CCOCC3)nc2)cn1` [Example 16, (R,E)-4-(5-(2-(2-(4-(4-fluoropyridin-2-yl)-2-(methoxymethyl)piperazin-1-yl)pyrimidin-5-yl)vinyl)pyridin-2-yl)morpholine]: the “Selectivity ratio (Assay 2/Assay 1)” value in assay [1] came to 281. Besides, the Ki in assay [1] (setting [3]) was determined as 1.6 nM; in assay [2], 450 nM.
For `FCCOC[C@H]1CN(c2ccncc2)CCN1c1ncc(/C=C/c2ccc(-n3ccnc3)nc2)cn1` [Example 31, (R,E)-5-(2-(6-(1H-imidazol-1-yl)pyridin-3-yl)vinyl)-2-(2-((2-fluoroethoxy)methyl)-4-(pyridin-4-yl)piperazin-1-yl)pyrimidine], the “Selectivity ratio (Assay 2/Assay 1)” value in assay [1] is listed as 2600. Further, the Ki was determined as 0.5 nM in assay [1] (setting [3]) and 1300 nM in assay [2].
